# Laboratory results taken from PubChem BioAssay (NCI).
#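 48-hour exposure; five concentrations; linearly interpolated endpoints. Abbreviation: GI50, concentration required for 50% inhibition of growth. TGI marks complete inhibition of growth.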
# How the values were obtained:
# Experiment in all cases: inhibition of tumour cell growth, NCI panel, 48 h
# [1] = tested on: MDA-MB-231 breast
# [2] = tested on: SF-268 CNS
# [3] = tested on: MDA-MB-435
# [4] = tested on: SF-539 CNS
# [5] = tested on: 786-0 renal
# [6] = tested on: SK-MEL-5 melanoma
# [7] = tested on: NCI-H23 lung
# [8] = tested on: HS 578T breast
# [9] = tested on: U251 CNS
# [10] = tested on: NCI-H522 lung
# [11] = tested on: SR leukemia
# [12] = tested on: SN12C renal
# [13] = tested on: RXF 393 renal
# [14] = tested on: EKVX NSCLC
# [15] = tested on: RPMI-8226 leukemia
# [16] = tested on: A498 renal
# [17] = tested on: NCI-H460 lung
# [18] = tested on: M14 melanoma
# [19] = tested on: MALME-3M melanoma
# [20] = tested on: HOP-62 NSCLC
# [21] = tested on: K-562 leukemia
# [22] = tested on: SK-MEL-2 melanoma
# [23] = tested on: NCI-H226 lung
# [24] = tested on: BT-549 breast
# [25] = tested on: DU-145 prostate
# [26] = tested on: CCRF-CEM leukemia
# [27] = tested on: OVCAR-8 ovarian
# [28] = tested on: LOX IMVI melanoma
# [29] = tested on: SW-620 colon
# [30] = tested on: MOLT-4 leukemia
# [31] = tested on: OVCAR-3 ovarian
# [32] = tested on: HCC-2998 colon
# [33] = tested on: PC-3 prostate
# [34] = tested on: A549 NSCLC
# [35] = tested on: COLO 205 colon
# [36] = tested on: UO-31 renal
# [37] = tested on: MCF7 breast
# [38] = tested on: UACC-257 melanoma
# [39] = tested on: OVCAR-5 ovarian
# [40] = tested on: OVCAR-4 ovarian
# [41] = tested on: SK-MEL-28 melanoma
# [42] = tested on: ACHN renal
# [43] = tested on: HCT-116 colon
# [44] = tested on: HL-60(TB) leukemia
# [45] = tested on: NCI/ADR-RES ovarian
# [46] = tested on: SF-295 CNS
# [47] = tested on: IGROV1 ovarian
# [48] = tested on: HT29 colon
# [49] = tested on: CAKI-1 renal
# [50] = tested on: SNB-75 CNS
# [51] = tested on: HOP-92 NSCLC
# [52] = tested on: T-47D breast
# [53] = tested on: UACC-62 melanoma
# [54] = tested on: HCT-15 colon
# [55] = tested on: KM12 colon
smiles,measurement,setting,value
COc1cccc2c(=O)c3c(sc12)c(NCCN(C)C)nc1ccccc13,GI50,[1],1.34 µM
same,TGI,[1],2.87 µM
same,GI50,[2],1.6 µM
same,TGI,[2],3.57 µM
same,GI50,[3],1.71 µM
same,TGI,[3],3.2 µM
same,GI50,[4],1.61 µM
same,TGI,[4],3.01 µM
same,GI50,[5],1.65 µM
same,TGI,[5],3.16 µM
same,GI50,[6],1.71 µM
same,TGI,[6],3.17 µM
same,GI50,[7],1.51 µM
same,TGI,[7],3.16 µM
same,GI50,[8],1.69 µM
same,TGI,[8],4.81 µM
same,GI50,[9],1.29 µM
same,TGI,[9],2.74 µM
same,GI50,[10],1.36 µM
same,TGI,[10],3.02 µM
same,GI50,[11],0.612 µM
same,TGI,[11],2.45 µM
same,GI50,[12],1.15 µM
same,TGI,[12],2.58 µM
same,GI50,[13],1.29 µM
same,TGI,[13],2.65 µM
same,GI50,[14],1.51 µM
same,TGI,[14],2.99 µM
same,GI50,[15],1.36 µM
same,TGI,[15],3.17 µM
same,GI50,[16],1.49 µM
same,TGI,[16],2.93 µM
same,GI50,[17],1.34 µM
same,TGI,[17],2.88 µM
same,GI50,[18],1.56 µM
same,TGI,[18],2.94 µM
same,GI50,[19],1.83 µM
same,TGI,[19],3.59 µM
same,GI50,[20],1.2 µM
same,TGI,[20],2.66 µM
same,GI50,[21],1.02 µM
same,TGI,[21],2.8 µM
same,GI50,[22],1.84 µM
same,TGI,[22],3.82 µM
same,GI50,[23],1.75 µM
same,TGI,[23],4.03 µM
same,GI50,[24],2.31 µM
same,TGI,[24],10.1 µM
same,GI50,[25],1.68 µM
same,TGI,[25],3.17 µM
same,GI50,[26],1.34 µM
same,TGI,[26],2.97 µM
same,GI50,[27],1.26 µM
same,TGI,[27],2.93 µM
same,GI50,[28],1.33 µM
same,TGI,[28],2.76 µM
same,GI50,[29],0.76 µM
same,TGI,[29],2.3 µM
same,GI50,[30],0.398 µM
same,TGI,[30],1.66 µM
same,GI50,[31],1.61 µM
same,TGI,[31],3.22 µM
same,GI50,[32],1.47 µM
same,TGI,[32],3.02 µM
same,GI50,[33],1.34 µM
same,TGI,[33],3.03 µM
same,GI50,[34],1.22 µM
same,TGI,[34],2.8 µM
same,GI50,[35],1.2 µM
same,TGI,[35],2.86 µM
same,GI50,[36],0.461 µM
same,TGI,[36],2 µM
same,GI50,[37],1.25 µM
same,TGI,[37],2.7 µM
same,GI50,[38],1.72 µM
same,TGI,[38],3.5 µM
same,GI50,[39],1.65 µM
same,TGI,[39],3.3 µM
same,GI50,[40],1.57 µM
same,TGI,[40],3.68 µM
same,GI50,[41],1.92 µM
same,TGI,[41],3.49 µM
same,GI50,[42],1 µM
same,TGI,[42],2.22 µM
same,GI50,[43],0.538 µM
same,TGI,[43],1.85 µM
same,GI50,[44],1.64 µM
same,TGI,[44],3.42 µM
same,GI50,[45],1.31 µM
same,TGI,[45],3.03 µM
same,GI50,[46],1.65 µM
same,TGI,[46],3.42 µM
same,GI50,[47],1.19 µM
same,TGI,[47],2.7 µM
same,GI50,[48],0.648 µM
same,TGI,[48],2.12 µM
same,GI50,[49],1.36 µM
same,TGI,[49],3.12 µM
same,GI50,[50],1.47 µM
same,TGI,[50],8.53 µM
same,GI50,[51],1.03 µM
same,TGI,[51],3.53 µM
same,GI50,[52],1.65 µM
same,TGI,[52],3.98 µM
same,GI50,[53],1.72 µM
same,TGI,[53],3.24 µM
same,GI50,[54],1.06 µM
same,TGI,[54],2.41 µM
same,GI50,[55],1.59 µM
same,TGI,[55],3.1 µM
